Experimental data: patent US11304965B2, “Flavonoid compositions and related methods” (INSTITUTO DE INVESTIGACIONES CIENTIFICAS Y SERVICIOS DE …, priority 2017, dated 2022)

Tests used:
Assay type in all cases: cell-based
human AT1 receptor = molecular target: T1, human AT1 receptor (Homo sapiens, UniProt P30556); assay: Aequorin bioluminescence intracellular calcium assay, CHO-AEQ-AT1 cells (inhibition of angiotensin II); details: CHO-AEQ cells expressing AT1; 100 nM angiotensin II; samples 100 μg/ml; compared with losartan; FIG. 21
T1 construct: pcDNA3.1+ plasmid DNA into which had been inserted the coding region for human AT1, AT2, or ETB receptor; expressed in transfected cells; host or cells: CHO-AEQ (Chinese hamster ovary cells stably expressing aequorin), transient transfection with Fugene HD
T1 sequence (P30556 1-359): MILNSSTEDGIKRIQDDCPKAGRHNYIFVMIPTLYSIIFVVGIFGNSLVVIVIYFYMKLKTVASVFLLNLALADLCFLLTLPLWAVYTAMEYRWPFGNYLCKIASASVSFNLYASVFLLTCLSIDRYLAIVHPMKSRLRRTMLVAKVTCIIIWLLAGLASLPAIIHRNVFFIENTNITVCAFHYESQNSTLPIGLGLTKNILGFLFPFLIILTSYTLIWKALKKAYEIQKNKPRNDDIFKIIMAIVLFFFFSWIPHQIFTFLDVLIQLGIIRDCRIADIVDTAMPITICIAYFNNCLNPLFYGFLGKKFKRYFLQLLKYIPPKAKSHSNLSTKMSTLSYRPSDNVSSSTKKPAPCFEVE
Procedure: (§1) To investigate the vasculoprotective, neuroprotective, and/or antihypertensive properties of Cecropia extracts, Chinese hamster ovary cells that had been stably transfected with aequorin (CHO-AEQ cells) were transiently transfected with various G-protein coupled receptors.
(§2) More particularly, CHO-AEQ cells were cultured in Dulbecco's Modified Eagle's Medium (DMEM) containing 10% fetal bovine serum as previously described (Vanderheyden et al., 126 Br J Pharmacol 1057-1065 (1999)). At 75% confluency, these cells were transiently transfected with pcDNA3.1+ plasmid DNA into which had been inserted the coding region for human AT1, AT2, or ETB receptor. The transient transfection was performed with Fugene HD® following the manufacturers' instructions (2 μg DNA to 7 μl Fugene HD® in Opti-MEM® medium. After transfection, the cells were cultured for an additional day, after which they were harvested and loaded with coelenterazine-h.
(§3) Intracellular calcium can be detected based on the interaction of calcium ions with the calcium binding bioluminescent complex aequorin. Upon calcium binding, aequorin oxidizes coelenterazine-h into coelenteramide with production of CO2 and emission of light (466 nm) (Le Poul et al., 7 J Biomol Screen 57-65 (2002). The CHO-AEQ cells that had been transiently transfected with human AT1, human AT2 or human ETB receptors were used in a bioluminescence assay to evaluate whether—and to what extent—material isolated from Cecropia obtusifolia could perturb G-protein coupled receptor(s).
(§4) Confluent CHO-AEQ cells that were grown and transfected in 75 cm^2 culture flasks were harvested by a brief treatment with a trypsin/EDTA solution, centrifuged, and resuspended in DMEM-F12 cell culture medium containing 0.1% BSA and denoted as assay buffer, at a cell density of 2.5×10^6 cells/ml. Subsequently, coelenterazine-h was added to the cell suspension to a final concentration of 5 μM. Cells were then incubated between 14 h and 18 h at room temperature in the dark under gentle shaking. After this loading step, 15 ml of assay buffer was added to the cells and then centrifuged for 7 min at 1100 rpm in a swinging bucket centrifuge. The resulting cell pellets were gently resuspended in assay buffer containing 1 μM coelenterazine-h at a cell density of 5×10^5 cells/ml. After a further incubation of 1.5 h at room temperature, the cell suspension was distributed at 100 μl/well in white Cellstar 96-well plates.
To assess the activity of the compounds derived from Cecropia obtusifolia extracts, lyophilized crude extract (and compounds that had been identified in the extract) were dissolved in DMSO at 1 mg/ml, and then further diluted in assay buffer to 100 μg/ml (final concentration) (Caballero-George et al., 4 Curr. Trends Biotechnol Pharm 881-899 (2010)). A […] was then added to each well containing the transiently transfected cells. […]
(§5) Measurements were initiated by injecting 50 μl solution/well, and the bioluminescence was recorded every 200 ms for 120 cycles. To account for slight variations in cell number, a final concentration of 10 μM ATP was added by a second injector to the cells (50 μl/well) and the resulting response was measured.
(§6) The effects were quantified by calculation of the area under the curves by integration of the obtained transient responses using GraphPad Prism 5™. The activation of the AT1, AT2, or ETB receptors was expressed as a fractional response. […]

human AT2 receptor = molecular target: T2, human AT2 receptor (Homo sapiens, UniProt P50052); assay: Aequorin bioluminescence intracellular calcium assay, CHO-AEQ-AT2 cells; details: CHO-AEQ cells expressing AT2; samples 100 μg/ml; compared with angiotensin II; FIG. 19
T2 construct: pcDNA3.1+ plasmid DNA into which had been inserted the coding region for human AT1, AT2, or ETB receptor; expressed in transfected cells; host or cells: CHO-AEQ (Chinese hamster ovary cells stably expressing aequorin), transient transfection with Fugene HD
T2 sequence (P50052 1-363): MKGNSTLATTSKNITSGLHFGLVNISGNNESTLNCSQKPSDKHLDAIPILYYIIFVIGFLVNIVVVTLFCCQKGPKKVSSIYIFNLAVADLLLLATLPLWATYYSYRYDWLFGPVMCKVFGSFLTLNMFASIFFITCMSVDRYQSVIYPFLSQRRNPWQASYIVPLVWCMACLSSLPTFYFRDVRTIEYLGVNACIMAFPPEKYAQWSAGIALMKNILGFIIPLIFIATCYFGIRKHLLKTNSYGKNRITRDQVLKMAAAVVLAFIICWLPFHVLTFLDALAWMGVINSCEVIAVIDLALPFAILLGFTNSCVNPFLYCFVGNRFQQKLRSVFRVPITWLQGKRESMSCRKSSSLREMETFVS
Procedure: as §1, §2, §3, §4
To assess the activity of the compounds derived from Cecropia obtusifolia extracts, lyophilized crude extract (and compounds that had been identified in the extract) were dissolved in DMSO at 1 mg/ml, and then further diluted in assay buffer to 100 μg/ml (final concentration) (Caballero-George et al., 4 Curr. Trends Biotechnol Pharm 881-899 (2010)). A […] was then added to each well containing the transiently transfected cells. For comparison, control peptides were diluted in assay buffer to a final concentration of 0.1 μM angiotensin II or 10 nM endothelin-1. These control peptides are known to cause a transient rise in cytosolic calcium. The agonist solutions were loaded in the cell injector of a Victor spectrophotometer, and a 96-well plate was inserted.
as §5
as §6, with “response. This is obtained by dividing the agonist response by the sum of the agonist and ATP response for each well (i.e., agonist response/(ATP+agonist response)).” for “response.”

human ETB receptor = molecular target: T3, human ETB receptor (Homo sapiens, UniProt P24530); assay: Aequorin bioluminescence intracellular calcium assay, CHO-AEQ-ETB cells; details: CHO-AEQ cells expressing ETB; samples 100 μg/ml; compared with 100 nM endothelin 1; FIG. 20
T3 construct: pcDNA3.1+ plasmid DNA into which had been inserted the coding region for human AT1, AT2, or ETB receptor; expressed in transfected cells; host or cells: CHO-AEQ (Chinese hamster ovary cells stably expressing aequorin), transient transfection with Fugene HD
T3 sequence (P24530 27-442): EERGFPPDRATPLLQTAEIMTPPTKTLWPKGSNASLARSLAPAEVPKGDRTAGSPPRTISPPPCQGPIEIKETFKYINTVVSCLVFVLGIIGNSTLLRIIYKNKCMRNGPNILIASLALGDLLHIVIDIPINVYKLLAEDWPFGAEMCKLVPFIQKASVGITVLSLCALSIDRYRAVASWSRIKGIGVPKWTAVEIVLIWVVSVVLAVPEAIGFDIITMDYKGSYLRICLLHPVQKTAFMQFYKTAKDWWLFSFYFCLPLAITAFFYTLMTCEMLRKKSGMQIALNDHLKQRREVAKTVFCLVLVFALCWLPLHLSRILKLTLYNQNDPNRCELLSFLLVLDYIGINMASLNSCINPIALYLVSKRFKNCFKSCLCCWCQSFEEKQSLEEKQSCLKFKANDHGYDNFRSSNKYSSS
Procedure: as §1
More particularly, CHO-AEQ cells were cultured in Dulbecco's Modified Eagle's Medium (DMEM) containing 10% fetal bovine serum as previously described (Vanderheyden et al., 126 Br J Pharmacol 1057-1065 (1999)). At 75% confluency, these cells were transiently transfected with pcDNA3.1+ plasmid DNA into which had been inserted the coding region for human AT1, AT2, or ETB receptor. […]
Intracellular calcium can be detected based on the interaction of calcium ions with the calcium binding bioluminescent complex aequorin. […]
as §5, §6

| Molecule | inhibition of the agonistic effect of angiotensin II on the AT1 receptor (human AT1 receptor) | activation of the AT2 receptor (cytoplasmic calcium release) (human AT2 receptor) | cytoplasmic calcium release after binding to the ETB receptors (human ETB receptor) |
| --- | --- | --- | --- |
| O=C(/C=C/c1ccc(O)c(O)c1)O[C@@H]1C[C@](O)(C(=O)O)C[C@@H](O)[C@H]1O [Compound P2, chlorogenic acid] | less than half of the effect of Fraction 3-4 | approximately half of the activity of the extract |  |
| O=c1cc(-c2ccc(O)c(O)c2)oc2cc(O)c(C3OC(CO)C(O)C(O)C3OC3OCC(O)C(O)C3O)c(O)c12 (stereo not drawn) [Compound P4, isoorientin-2″-O-xyloside] | less than half of the effect of Fraction 3-4 | approximately half of the activity of the extract |  |
| O=c1cc(-c2ccc(O)cc2)oc2cc(O)c(C3OC(CO)C(O)C(O)C3OC3OC(CO)C(O)C(O)C3O)c(O)c12 (stereo not drawn) [Compound P7, isovitexin-2″-O-glucoside] | less than half of the effect of Fraction 3-4 | approximately half of the activity of the extract |  |
| O=c1cc(-c2ccc(O)cc2)oc2cc(O)c(C3OC(CO)C(O)C(O)C3OC3OCC(O)C(O)C3O)c(O)c12 (stereo not drawn) [Compound P8, isovitexin-2″-O-xyloside] | less than half of the effect of Fraction 3-4 | approximately half of the activity of the extract |  |
| CC1OC(OC2C(c3c(O)cc4oc(-c5ccc(O)cc5)cc(=O)c4c3O)OC(CO)C(O)C2O)C(O)C(O)C1O (stereo not drawn) [Compound P9, isovitexin-2″-O-rhamnoside] | less than half of the effect of Fraction 3-4 | approximately half of the activity of the extract |  |
| isovitexin-O-xyloside [Compound P6] |  | approximately half of the activity of the extract | the most active sample tested |
